ChEMBL document CHEMBL5380844, “Discovery of a Novel, Potent, Orally Active, and Safe Inhibitor Targeting Human Mitochondrial RNA Polymerase” (J Med Chem, 2023)
Converted amounts (≈) assume the structure as drawn. The source made the active and inactive calls. The calls are words filed in the database; no cut-off is given here.

Columns and labels:
A2780 [1] = test: Effect on POLRMT mRNA level in human A2780 cells by RT-qPCR analysis; type: functional, cell-based
[2] = Solubility in PBS at pH 7.4; type: physicochemical
MDA-MB-468 = test: Antiproliferative activity against human MDA-MB-468 cells incubated for 168 hrs by SRB method; type: functional, cell-based; conditions: MDA-MB-468, 168 h
A2780 [3] = test: Inhibition of MT-ND6 expression in human A2780 cells at 100 nM incubated for 12 hrs by RNA sequencing analysis; type: functional, cell-based
A2780 [4] = test: Induction of apoptosis in human A2780 cells assessed as early apoptotic cells at 100 nM incubated for 96 hrs by Annexin-V/FITC and PI staining based flow cytometry analysis (reference value: 14.14%); type: functional
[5] = Oral bioavailability in ICR mouse at 10 mg/kg measured upto 24 hrs by LC-MS/MS analysis; type: ADME, organism-based; conditions: in vivo
A2780 [6] = test: Induction of apoptosis in human A2780 cells assessed as viable cells at 50 nM incubated for 96 hrs by Annexin-V/FITC and PI staining based flow cytometry analysis (reference value: 89.2%); type: functional; conditions: read-out: Activity
[7] = Antiproliferative activity against human PBMC cells incubated for 168 hrs by SRB method; type: functional, cell-based
MIA PaCa-2 = test: Antiproliferative activity against human MIA PaCa-2 cells incubated for 168 hrs by SRB method; type: functional, cell-based; conditions: MIA PaCa-2, 168 h
A549 = test: Antiproliferative activity against human A549 cells incubated for 168 hrs by SRB method; type: functional, cell-based; conditions: A549, 168 h
A2780 [8] = test: Induction of apoptosis in human A2780 cells assessed as early apoptotic cells at 200 nM incubated for 96 hrs by Annexin-V/FITC and PI staining based flow cytometry analysis (reference value: 14.14%); type: functional
A2780 [9] = test: Induction of apoptosis in human A2780 cells assessed as late apoptotic cells at 100 nM incubated for 96 hrs by Annexin-V/FITC and PI staining based flow cytometry analysis (reference value: 3.79%); type: functional
A2780 [10] = test: Antitumor activity against human A2780 cells xenografted in BALB/c nude mouse model assessed as reduction in COX1 level at 100 mg/kg, po by immunoblotting analysis; type: functional, organism-based
A2780 [11] = test: Effect on 18S mRNA level in human A2780 cells by RT-qPCR analysis; type: functional, cell-based
[12] = MRT in ICR mouse at 1 mg/kg, iv measured upto 24 hrs by LC-MS/MS analysis; type: ADME, organism-based; conditions: in vivo
[13] = Toxicity in Balb/c mouse assessed as effect on liver at 100 mg/kg by H and E staining based analysis; type: organism-based; conditions: in vivo
A2780 [14] = test: Induction of apoptosis in human A2780 cells assessed as early apoptotic cells at 50 nM incubated for 96 hrs by Annexin-V/FITC and PI staining based flow cytometry analysis (reference value: 14.14%); type: functional
HeLa = test: Antiproliferative activity against human HeLa cells incubated for 168 hrs by SRB method; type: functional, cell-based
Cytochrome P450 1A2 = molecular target: T1, Cytochrome P450 1A2 (Homo sapiens, UniProt P05177); test: Inhibition of CYP1A2 (unknown origin) using phenacetin as substrate in presence of NADPH by LC/MS/MS analysis; type: ADME
T1 sequence (P05177 whole entry): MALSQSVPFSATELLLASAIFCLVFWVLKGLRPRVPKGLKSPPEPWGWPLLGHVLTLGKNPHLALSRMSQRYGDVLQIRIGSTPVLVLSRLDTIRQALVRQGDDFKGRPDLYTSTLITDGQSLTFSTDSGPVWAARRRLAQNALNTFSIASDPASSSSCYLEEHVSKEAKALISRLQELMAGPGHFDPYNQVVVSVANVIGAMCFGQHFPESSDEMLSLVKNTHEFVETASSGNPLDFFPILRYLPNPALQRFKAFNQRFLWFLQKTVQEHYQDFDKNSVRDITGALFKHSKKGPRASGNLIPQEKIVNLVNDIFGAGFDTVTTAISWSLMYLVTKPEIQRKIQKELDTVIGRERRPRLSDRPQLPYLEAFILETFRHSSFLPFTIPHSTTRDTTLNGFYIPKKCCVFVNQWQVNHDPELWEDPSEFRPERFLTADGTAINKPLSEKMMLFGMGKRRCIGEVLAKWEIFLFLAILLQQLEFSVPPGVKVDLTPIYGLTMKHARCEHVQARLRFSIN

A2780 [15] = test: Effect on beta-actin mRNA level in human A2780 cells by RT-qPCR analysis; type: functional, cell-based
Cytochrome P450 3A4 = Cytochrome P450 3A4 (Homo sapiens, UniProt P08684); test: Inhibition of […] (unknown origin) using testosterone as substrate in presence of NADPH by LC/MS/MS analysis; type: ADME
Chain of Cytochrome P450 3A4 (P08684 whole entry): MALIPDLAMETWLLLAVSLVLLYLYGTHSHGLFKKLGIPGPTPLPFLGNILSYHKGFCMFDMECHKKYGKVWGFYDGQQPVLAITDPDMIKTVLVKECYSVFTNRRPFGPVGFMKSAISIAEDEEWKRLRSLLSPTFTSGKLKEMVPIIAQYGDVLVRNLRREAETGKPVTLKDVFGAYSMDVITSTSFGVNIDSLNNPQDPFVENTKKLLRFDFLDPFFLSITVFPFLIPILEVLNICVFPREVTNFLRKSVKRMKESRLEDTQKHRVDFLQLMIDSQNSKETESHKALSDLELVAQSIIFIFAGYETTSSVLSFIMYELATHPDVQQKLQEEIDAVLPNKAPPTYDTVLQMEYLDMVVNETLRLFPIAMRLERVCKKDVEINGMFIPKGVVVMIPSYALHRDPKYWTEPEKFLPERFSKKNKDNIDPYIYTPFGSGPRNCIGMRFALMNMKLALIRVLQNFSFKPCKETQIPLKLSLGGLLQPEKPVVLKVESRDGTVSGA

A2780 [16] = test: Induction of autophagy in human A2780 cells assessed as change in MDC labeled fluorescence at upto 500 nM measured after 96 hrs by microscopic analysis; type: functional, cell-based
A2780 [17] = test: Induction of mitochondrial membrane potential changes in human A2780 cells at upto 500 nM measured after 96 hrs by JC-1 staining based immunofluorescence assay; type: functional, cell-based
A2780 [18] = test: Downregulation of NDUFB8 level in human A2780 cells by Western blot analysis; type: functional, cell-based; conditions: dose <= 500.0 nM
NCI-H3122 = test: Antiproliferative activity against human NCI-H3122 cells incubated for 168 hrs by SRB method; type: functional, cell-based; conditions: NCI-H3122, 168 h
A2780 [19] = test: Inhibition of colony formation in human A2780 cells at 500 nM incubated for 14 days by crystal violet staining based analysis; type: functional, cell-based; conditions: time 14.0 day
A2780 [20] = test: Effect on ATP5A level in human A2780 cells at upto 500 nM by Western blot analysis; type: functional, cell-based
A2780 [21] = test: Induction of apoptosis in human A2780 cells assessed as viable cells at 200 nM incubated for 96 hrs by Annexin-V/FITC and PI staining based flow cytometry analysis (reference value: 89.2%); type: functional; conditions: read-out: Activity
A2780 [22] = test: Antitumor activity against human A2780 cells xenografted in BALB/c nude mouse model assessed as reduction in UQCRC2 level at 100 mg/kg, po by immunoblotting analysis; type: functional, organism-based
[23] = Toxicity in Balb/c mouse assessed as effect on lung at 100 mg/kg by H and E staining based analysis; type: organism-based; conditions: in vivo
A2780 [24] = test: Inhibition of colony formation in human A2780 cells assessed as decrease in colony quantity at 10 nM incubated for 14 days by crystal violet staining based analysis; type: functional, cell-based; conditions: time 14.0 day
[25] = Toxicity in Balb/c mouse assessed as effect on heart at 100 mg/kg by H and E staining based analysis; type: organism-based; conditions: in vivo
[26] = AUC (0 to t) in ICR mouse at 1 mg/kg, iv measured upto 24 hrs by LC-MS/MS analysis; type: ADME, organism-based; parameters: time < 24 hrs, dose 1 mg/kg, route iv; conditions: in vivo
A2780 [27] = test: Inhibition of mitochondrial transcript in human A2780 cells assessed as decrease in COX1 expression by RT-qPCR analysis; type: functional, cell-based
[28] = Toxicity in Balb/c mouse assessed as effect on spleen at 100 mg/kg by H and E staining based analysis; type: organism-based; conditions: in vivo
Cytochrome P450 2D6 = Cytochrome P450 2D6 (Homo sapiens, UniProt P10635); test: Inhibition of CYP2D6 (unknown origin) using bufuralol as substrate in presence of NADPH by LC/MS/MS analysis; type: ADME
Chain of Cytochrome P450 2D6 (P10635 whole entry): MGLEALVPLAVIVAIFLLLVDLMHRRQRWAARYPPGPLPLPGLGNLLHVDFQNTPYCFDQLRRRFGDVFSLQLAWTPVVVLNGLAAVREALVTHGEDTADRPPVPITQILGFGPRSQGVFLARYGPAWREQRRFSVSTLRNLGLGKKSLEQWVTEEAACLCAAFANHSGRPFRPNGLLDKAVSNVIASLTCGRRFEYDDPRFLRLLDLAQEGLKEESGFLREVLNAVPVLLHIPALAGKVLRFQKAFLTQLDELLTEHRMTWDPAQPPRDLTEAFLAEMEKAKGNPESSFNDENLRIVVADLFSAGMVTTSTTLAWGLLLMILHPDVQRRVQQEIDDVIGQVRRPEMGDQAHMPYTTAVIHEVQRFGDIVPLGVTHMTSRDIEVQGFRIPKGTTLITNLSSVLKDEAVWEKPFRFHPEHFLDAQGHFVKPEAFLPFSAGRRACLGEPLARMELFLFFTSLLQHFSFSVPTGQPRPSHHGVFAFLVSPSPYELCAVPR

SMILES: Cc1ccc(-c2cc(=O)oc3cc(O[C@H](C)C(=O)N4CC5CCC(C4)N5C)ccc23)c(C)c1
- Activity (A2780 [1]): inactive
- solubility [2]: 226 µg/mL (≈ 506 µM)
- IC50 (MDA-MB-468): 132 nM
- inhibition (A2780 [3]): Active
- Activity (A2780 [4]): 0.28%
- bioavailability [5]: 43.2%
- viability at 0.05 µM (A2780 [6]): 92.3%
- IC50 [7]: > 50 µM
- IC50 (MIA PaCa-2): 88 nM
- IC50 (A549): 721 nM
- Activity (A2780 [8]): 0.73%
- Activity (A2780 [9]): 5.11%
- Activity (A2780 [10]): Active
- Activity (A2780 [11]): inactive
- MRT [12]: 2.66 h
- Activity [13]: Non-Toxic
- Activity (A2780 [14]): 2.22%
- IC50 (HeLa): 832 nM
- IC50 (Cytochrome P450 1A2): > 40 µM
- Activity (A2780 [15]): inactive
- IC50 (Cytochrome P450 3A4): 30.8 µM
- Activity (A2780 [16]): inactive
- Activity (A2780 [17]): inactive
- Activity (A2780 [18]): Dose-Dependent Effect
- IC50 (NCI-H3122): > 10 µM
- inhibition (A2780 [19]): inactive
- Activity (A2780 [20]): inactive
- viability at 0.2 µM (A2780 [21]): 90.7%
- Activity (A2780 [22]): Active
- Activity [23]: Non-Toxic
- inhibition (A2780 [24]): Active
- Activity [25]: Non-Toxic
- AUC(0-t) at 24 h [26]: 424 ng·h/mL
- inhibition (A2780 [27]): Active
- Activity [28]: Non-Toxic
- IC50 (Cytochrome P450 2D6): > 40 µM
